Results: ChEMBL document CHEMBL1201862, “PubChem BioAssay data set” (2004)
Calls of active or inactive are those of the source.

Legend:
Protein skinhead-1 = biological target: T1, Protein skinhead-1 (Caenorhabditis elegans, UniProt P34707); type: functional
T1 sequence (P34707 whole entry): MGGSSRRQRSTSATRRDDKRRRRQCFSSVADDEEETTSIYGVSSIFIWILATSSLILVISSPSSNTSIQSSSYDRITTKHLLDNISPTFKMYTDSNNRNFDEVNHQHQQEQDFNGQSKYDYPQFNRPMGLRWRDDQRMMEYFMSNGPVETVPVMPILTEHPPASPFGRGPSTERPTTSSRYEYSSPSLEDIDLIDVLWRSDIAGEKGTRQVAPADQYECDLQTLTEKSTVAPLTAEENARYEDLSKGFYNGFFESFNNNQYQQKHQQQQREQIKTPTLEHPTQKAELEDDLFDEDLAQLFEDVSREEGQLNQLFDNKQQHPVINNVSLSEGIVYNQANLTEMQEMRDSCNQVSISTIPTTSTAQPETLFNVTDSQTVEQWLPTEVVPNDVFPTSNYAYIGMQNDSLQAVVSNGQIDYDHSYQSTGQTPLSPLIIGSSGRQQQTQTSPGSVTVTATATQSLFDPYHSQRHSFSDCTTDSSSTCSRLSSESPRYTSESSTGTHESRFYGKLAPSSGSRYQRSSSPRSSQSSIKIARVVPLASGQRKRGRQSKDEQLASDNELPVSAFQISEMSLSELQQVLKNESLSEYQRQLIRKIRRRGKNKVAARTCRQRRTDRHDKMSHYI

[1] = biological target: T2, Delta-type opioid receptor (Homo sapiens, UniProt P41143); assay: HTS Image-Based Screen for Antagonists of the DOR Receptor. [Related pubchem assays (depositor defined):AID1777, AID1785, AID1786, AID2133]; type: functional
Beta-galactosidase = Beta-galactosidase (Escherichia coli, UniProt Q8VNN2); type: functional
[2] = biological target: T2, Delta-type opioid receptor; assay: HTS Image-Based Screen for Agonists of the DOR Receptor. [Related pubchem assays (depositor defined):AID1777, AID1786, AID2133]; type: functional
[3] = biological target: T3, Kappa-type opioid receptor (Homo sapiens, UniProt P41145); type: functional
[4] = biological target: T4, Short transient receptor potential channel 4 (Mus musculus, UniProt Q9QUQ5); assay: mouse TRPC4 channel inhibitors, dose response, cell-based, HEK293 TRPC4/mu-opioid, Fluo-4 calcium (AID 434942); type: functional;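 also: potency of inhibitors blocking the TRPC4 calcium response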
T4 sequence (Q9QUQ5 whole entry): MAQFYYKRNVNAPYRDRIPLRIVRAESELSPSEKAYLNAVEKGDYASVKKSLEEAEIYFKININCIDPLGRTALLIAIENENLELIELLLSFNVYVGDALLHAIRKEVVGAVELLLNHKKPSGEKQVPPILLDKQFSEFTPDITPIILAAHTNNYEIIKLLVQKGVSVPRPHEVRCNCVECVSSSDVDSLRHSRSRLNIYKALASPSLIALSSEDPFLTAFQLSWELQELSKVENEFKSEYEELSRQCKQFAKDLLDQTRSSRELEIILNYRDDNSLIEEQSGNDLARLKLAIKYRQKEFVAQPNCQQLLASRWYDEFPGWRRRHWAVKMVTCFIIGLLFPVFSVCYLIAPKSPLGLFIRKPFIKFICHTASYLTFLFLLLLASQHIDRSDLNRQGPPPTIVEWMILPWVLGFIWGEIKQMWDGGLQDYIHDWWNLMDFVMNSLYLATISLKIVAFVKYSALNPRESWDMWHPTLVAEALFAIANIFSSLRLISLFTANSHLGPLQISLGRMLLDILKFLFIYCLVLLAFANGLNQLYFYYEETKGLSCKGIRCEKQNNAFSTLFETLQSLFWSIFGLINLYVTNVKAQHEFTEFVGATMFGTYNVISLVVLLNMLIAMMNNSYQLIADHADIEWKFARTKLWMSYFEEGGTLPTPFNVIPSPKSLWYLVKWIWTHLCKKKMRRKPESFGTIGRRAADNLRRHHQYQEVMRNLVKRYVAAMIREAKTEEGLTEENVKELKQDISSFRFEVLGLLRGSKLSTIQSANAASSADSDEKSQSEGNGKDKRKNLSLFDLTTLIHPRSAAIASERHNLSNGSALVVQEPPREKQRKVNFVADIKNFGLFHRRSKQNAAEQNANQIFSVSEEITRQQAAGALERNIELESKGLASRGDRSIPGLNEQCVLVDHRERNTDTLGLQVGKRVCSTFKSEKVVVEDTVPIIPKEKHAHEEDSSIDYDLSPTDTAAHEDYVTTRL

Mu-type opioid receptor = Mu-type opioid receptor (Homo sapiens, UniProt P35372); assay: HTS Image-Based Screen for Agonists of the MOR Receptor. [Related pubchem assays (depositor defined):AID1777, AID1785, AID1786, AID2133]; type: functional;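 also: imaging of beta-arrestin GFP recruitment into spots after receptor activation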
[5] = biological target: T3, Kappa-type opioid receptor; type: functional; remark: listed apart in the source
H4 = assay: Luminescence Cell-Based Dose Response HTS to Identify Activators of 5'UTR Stem-Loop Driven Prion Protein mRNA Translation in H4 Neuroglioblastoma Cells. [Related pubchem assays: 1829 (Project Summary), 1814 (Primary HTS)]; type: functional; details: Homo sapiens
[6] = Luminescence Cell-Based Dose Response HTS to Identify Activators of Luciferase Translation or Activity in H4 […] Cells. [Related pubchem assays: 1829 (Project Summary), 1814 (Primary HTS)]; type: functional
[7] = biological target: T5, Dual specificity protein phosphatase 6 (Rattus norvegicus, UniProt Q64346); assay: MKP-3 phosphatase inhibitors, primary screen, biochemical, rat enzyme, in vitro (AID 425)
T5 sequence (Q64346 whole entry): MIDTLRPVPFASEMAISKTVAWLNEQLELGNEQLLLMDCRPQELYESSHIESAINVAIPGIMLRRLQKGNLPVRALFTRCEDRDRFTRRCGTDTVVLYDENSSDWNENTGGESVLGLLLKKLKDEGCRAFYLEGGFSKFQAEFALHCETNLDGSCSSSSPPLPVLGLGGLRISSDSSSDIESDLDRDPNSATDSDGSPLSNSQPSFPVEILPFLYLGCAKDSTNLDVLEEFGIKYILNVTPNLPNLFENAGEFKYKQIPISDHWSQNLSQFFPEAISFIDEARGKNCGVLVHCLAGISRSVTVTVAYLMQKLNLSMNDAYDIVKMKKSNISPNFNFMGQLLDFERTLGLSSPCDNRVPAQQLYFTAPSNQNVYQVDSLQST

Streptococcus = assay: Group A Streptococcus viability loss, dose response, counter-screen for streptokinase expression inhibitor project, luminescence, BacTiterGlo (AID 1915); type: functional, organism-based;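 also: potency for reduction of bacterial viability or growth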
[8] = biological target: Mitogen-activated protein kinase 10 (Homo sapiens, UniProt P53779); assay: Dose response biochemical screening assay for inhibitors of c-Jun N-Terminal Kinase 3 (JNK3). [Related pubchem assays: 746 ]
[9] = C. albicans growth with fluconazole, confirmation, fluorescence, retest (AID 2467); type: functional, cell-based
[10] = biological target: T6, Tyrosine-protein phosphatase non-receptor type 7 (Homo sapiens, UniProt P35236); type: functional
T6 sequence (P35236 whole entry): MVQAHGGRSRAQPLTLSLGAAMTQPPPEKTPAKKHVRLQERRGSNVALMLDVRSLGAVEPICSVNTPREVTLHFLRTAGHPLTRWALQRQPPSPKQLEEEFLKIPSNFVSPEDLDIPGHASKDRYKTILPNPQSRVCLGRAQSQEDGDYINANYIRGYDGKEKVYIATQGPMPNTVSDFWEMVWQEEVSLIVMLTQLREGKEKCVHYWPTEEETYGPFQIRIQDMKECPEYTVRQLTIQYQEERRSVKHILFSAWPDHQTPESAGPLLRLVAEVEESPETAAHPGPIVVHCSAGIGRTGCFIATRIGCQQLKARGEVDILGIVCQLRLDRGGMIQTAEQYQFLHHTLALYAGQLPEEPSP

[11] = biological target: T7, Calpain-2 catalytic subunit (Sus scrofa, UniProt P43367); assay: pig calpain II inhibitor potency, dose response, biochemical, fluorogenic peptide substrate (AID 1420); type: functional
T7 sequence (P43367 whole entry): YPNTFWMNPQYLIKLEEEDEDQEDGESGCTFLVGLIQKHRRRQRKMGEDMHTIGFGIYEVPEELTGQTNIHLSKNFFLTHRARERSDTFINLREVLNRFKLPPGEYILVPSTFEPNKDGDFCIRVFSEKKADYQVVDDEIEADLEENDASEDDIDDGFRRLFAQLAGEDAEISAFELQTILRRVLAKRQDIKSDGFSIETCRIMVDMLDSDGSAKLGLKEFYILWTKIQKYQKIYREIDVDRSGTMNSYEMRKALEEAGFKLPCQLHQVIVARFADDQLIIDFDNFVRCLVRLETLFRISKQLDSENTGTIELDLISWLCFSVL

[12] = Luminescence Cell-Based Dose Confirmation HTS to Identify Activators of 5'UTR Stem-Loop Driven Alpha-Synuclein mRNA Translation in H4 Neuroglioblastoma Cells. [Related pubchem assays: 1829 (Project Summary), 1814 (Primary HTS)]; type: functional
[13] = test system: Streptococcus sp. 'group A'; assay: growth inhibition of control SK(-) GAS strain, dose response, counter-screen for streptokinase expression inhibitor project, luminescence, kanamycin, BacTiterGlo, confirmation (AID 1900); type: functional, organism-based
[14] = biological target: T8, Tyrosine-protein phosphatase non-receptor type 22 (Homo sapiens, UniProt Q9Y2R2); type: functional
T8 sequence (Q9Y2R2 whole entry): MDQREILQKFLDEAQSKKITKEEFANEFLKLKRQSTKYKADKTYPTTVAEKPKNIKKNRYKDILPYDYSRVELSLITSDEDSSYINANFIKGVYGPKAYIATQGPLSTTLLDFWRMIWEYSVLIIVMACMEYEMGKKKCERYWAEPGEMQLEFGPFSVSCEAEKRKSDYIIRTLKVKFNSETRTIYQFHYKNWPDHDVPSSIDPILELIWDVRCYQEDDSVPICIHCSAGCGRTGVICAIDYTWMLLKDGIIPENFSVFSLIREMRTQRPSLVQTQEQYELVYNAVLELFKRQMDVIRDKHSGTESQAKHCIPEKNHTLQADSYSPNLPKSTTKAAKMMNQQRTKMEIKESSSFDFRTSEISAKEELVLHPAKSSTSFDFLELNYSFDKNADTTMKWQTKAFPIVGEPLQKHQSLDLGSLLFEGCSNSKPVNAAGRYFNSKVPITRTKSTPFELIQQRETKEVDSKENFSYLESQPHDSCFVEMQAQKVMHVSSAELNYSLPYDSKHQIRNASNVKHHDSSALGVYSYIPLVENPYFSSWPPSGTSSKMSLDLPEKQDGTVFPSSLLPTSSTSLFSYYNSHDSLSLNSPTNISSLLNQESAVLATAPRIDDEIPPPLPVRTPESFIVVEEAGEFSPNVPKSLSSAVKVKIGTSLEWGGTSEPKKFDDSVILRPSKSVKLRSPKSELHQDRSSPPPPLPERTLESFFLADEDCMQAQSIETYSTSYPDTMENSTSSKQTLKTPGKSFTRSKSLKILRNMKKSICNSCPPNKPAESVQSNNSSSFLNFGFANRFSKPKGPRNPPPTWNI

[15] = biological target: T8, Tyrosine-protein phosphatase non-receptor type 22; type: functional; remark: listed apart in the source
Streptokinase A = biological target: T9, Streptokinase A (Streptococcus pyogenes serotype M1, UniProt P10520); assay: S. pyogenes streptokinase expression inhibitors, potency, dose response, plasminogen activation absorbance, OD405 (AID 1914); type: functional, Streptococcus pyogenes M1 GAS;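 also: secreted streptokinase activity via plasminogen activation per viability signal from cell pellet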
T9 sequence (P10520 whole entry): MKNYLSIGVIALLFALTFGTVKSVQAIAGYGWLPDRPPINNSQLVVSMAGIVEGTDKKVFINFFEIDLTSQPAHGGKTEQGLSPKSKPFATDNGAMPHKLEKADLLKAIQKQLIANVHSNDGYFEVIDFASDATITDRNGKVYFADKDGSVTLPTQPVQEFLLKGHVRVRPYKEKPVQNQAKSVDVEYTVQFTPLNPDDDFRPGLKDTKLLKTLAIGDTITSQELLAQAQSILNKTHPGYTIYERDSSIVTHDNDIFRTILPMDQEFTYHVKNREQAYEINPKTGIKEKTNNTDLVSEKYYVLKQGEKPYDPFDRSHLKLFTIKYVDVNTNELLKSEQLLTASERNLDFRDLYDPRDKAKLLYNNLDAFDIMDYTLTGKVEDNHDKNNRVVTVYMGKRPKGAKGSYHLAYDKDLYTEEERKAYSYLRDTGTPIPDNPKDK

[16] = NIH-3T3 fibroblast cytotoxicity, dose response, cytotoxicity control, cell-based, fluorescence, Alamar Blue, secondary assay (AID 2327); type: functional;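 also: NIH-3T3 mouse fibroblasts cultured with fluconazole at 8 µg/mL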
[17] = biological target: T10, Mannose-6-phosphate isomerase (Homo sapiens, UniProt P34949); assay: PMI enzyme inhibitors, confirmation, biochemical, fluorescence intensity (AID 1535)
T10 sequence (P34949 whole entry): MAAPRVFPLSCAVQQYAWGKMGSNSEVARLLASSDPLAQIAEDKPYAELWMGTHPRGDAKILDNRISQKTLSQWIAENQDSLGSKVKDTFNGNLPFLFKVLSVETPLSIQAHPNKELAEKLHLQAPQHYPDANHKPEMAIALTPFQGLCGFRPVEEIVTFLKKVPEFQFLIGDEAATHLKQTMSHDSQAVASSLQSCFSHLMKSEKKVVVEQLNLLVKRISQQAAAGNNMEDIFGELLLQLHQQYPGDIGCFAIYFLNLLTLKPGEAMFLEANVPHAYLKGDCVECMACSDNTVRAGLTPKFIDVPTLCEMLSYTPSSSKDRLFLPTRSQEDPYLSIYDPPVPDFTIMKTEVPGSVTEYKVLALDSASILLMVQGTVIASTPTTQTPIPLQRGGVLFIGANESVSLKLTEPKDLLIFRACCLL

Phosphomannomutase 2 = Phosphomannomutase 2 (Homo sapiens, UniProt O15305); assay: Counter screen SAR assay for PMM2 inhibitors via a fluorescence intensity assay. [Related pubchem assays (depositor defined):AID1545, AID1574]
Sequence of Phosphomannomutase 2 (O15305 whole entry): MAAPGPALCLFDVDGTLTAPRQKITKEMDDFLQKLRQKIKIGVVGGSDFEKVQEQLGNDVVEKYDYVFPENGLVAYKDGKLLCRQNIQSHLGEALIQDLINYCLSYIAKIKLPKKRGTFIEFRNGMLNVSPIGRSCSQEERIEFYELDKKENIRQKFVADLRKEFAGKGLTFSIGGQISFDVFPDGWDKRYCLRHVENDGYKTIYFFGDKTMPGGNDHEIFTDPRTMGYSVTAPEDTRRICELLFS

T3 sequence (P41145 whole entry): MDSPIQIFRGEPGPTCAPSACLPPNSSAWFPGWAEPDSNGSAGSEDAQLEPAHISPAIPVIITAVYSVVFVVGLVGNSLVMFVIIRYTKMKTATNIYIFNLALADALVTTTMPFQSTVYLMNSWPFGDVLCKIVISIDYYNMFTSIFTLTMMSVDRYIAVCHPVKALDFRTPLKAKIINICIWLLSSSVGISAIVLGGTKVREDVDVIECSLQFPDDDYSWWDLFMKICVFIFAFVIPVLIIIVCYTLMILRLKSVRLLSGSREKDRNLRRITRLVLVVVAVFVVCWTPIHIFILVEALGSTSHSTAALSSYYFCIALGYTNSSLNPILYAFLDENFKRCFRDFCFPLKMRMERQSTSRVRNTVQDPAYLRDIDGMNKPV
T2 sequence (P41143 whole entry): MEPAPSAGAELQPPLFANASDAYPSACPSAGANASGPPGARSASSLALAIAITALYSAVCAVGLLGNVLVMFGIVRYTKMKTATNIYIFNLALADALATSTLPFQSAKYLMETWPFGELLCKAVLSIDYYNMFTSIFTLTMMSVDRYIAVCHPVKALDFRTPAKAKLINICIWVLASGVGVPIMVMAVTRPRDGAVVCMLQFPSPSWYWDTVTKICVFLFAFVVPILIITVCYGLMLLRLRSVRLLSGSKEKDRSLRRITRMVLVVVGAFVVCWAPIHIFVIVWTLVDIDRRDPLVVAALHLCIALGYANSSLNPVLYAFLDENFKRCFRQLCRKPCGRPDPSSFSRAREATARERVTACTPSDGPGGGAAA
Sequence of Beta-galactosidase (Q8VNN2 whole entry): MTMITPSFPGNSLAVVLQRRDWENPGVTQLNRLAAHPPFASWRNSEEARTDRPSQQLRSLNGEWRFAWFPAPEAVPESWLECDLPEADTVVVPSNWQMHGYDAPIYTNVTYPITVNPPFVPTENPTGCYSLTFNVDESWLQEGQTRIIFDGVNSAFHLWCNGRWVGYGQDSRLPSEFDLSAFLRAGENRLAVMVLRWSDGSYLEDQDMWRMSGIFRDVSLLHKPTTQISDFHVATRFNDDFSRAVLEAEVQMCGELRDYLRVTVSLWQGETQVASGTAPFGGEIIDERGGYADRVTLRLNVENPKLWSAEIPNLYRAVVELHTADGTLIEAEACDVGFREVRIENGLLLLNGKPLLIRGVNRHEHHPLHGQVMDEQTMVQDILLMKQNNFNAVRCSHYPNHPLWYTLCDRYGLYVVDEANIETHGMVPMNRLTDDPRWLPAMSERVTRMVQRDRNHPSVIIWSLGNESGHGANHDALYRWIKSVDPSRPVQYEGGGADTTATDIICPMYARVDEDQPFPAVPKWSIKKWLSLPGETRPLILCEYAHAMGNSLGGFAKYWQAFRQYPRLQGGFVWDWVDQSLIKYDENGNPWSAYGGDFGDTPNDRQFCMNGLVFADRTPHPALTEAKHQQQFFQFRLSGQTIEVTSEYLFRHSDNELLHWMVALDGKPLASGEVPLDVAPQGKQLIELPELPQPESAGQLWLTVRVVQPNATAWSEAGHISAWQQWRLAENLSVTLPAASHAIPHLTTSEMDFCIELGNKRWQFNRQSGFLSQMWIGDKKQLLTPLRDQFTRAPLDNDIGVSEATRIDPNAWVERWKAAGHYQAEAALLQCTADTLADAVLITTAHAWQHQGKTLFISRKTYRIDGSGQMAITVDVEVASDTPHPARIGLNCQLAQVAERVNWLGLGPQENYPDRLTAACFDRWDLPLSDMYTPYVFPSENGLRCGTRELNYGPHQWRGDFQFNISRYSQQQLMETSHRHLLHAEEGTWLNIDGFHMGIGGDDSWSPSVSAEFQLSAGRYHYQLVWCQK
Sequence of Mitogen-activated protein kinase 10 (P53779 whole entry): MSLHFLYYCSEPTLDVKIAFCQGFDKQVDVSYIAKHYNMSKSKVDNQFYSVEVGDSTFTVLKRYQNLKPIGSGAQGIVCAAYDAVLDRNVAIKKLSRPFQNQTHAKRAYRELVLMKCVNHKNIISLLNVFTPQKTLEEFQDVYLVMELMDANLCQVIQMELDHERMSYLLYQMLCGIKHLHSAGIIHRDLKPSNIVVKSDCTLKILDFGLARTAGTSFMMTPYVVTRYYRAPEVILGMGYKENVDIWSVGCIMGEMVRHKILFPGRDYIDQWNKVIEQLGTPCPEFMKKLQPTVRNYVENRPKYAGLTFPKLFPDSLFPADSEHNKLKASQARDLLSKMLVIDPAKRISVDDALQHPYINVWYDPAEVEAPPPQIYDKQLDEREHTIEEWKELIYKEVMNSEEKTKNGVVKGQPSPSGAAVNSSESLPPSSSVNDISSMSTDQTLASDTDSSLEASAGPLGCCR
Sequence of Mu-type opioid receptor (P35372 whole entry): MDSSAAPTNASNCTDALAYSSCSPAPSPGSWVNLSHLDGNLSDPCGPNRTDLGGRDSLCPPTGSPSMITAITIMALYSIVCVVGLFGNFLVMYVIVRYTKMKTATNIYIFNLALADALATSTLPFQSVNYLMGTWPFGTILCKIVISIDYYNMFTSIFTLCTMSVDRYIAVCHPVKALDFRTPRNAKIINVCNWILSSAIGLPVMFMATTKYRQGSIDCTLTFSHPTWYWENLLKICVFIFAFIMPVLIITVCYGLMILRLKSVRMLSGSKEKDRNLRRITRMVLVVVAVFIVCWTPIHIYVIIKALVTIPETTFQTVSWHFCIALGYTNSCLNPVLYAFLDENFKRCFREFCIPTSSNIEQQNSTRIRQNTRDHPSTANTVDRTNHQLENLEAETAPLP

CCOc1cc(CNC2CCCC2)cc(Cl)c1OCc1ccccc1
IC50 (Protein skinhead-1): < 3.13 µM (active)
IC50 [1]: > 32 µM (inactive)
EC50 (Beta-galactosidase): > 31.5 µM (inactive)
EC50 [2]: > 32 µM (inactive)
IC50 [3]: 2.57 µM
EC50 [4]: 4.22 µM (active)
EC50 (Mu-type opioid receptor): > 32 µM (inactive)
IC50 [5]: 7.88 µM (active)

CCn1nc(-c2ccccc2)nc2c(=O)n(C)c(=O)nc1-2
EC50 (H4): > 120 µM (not active)
EC50 [6]: > 30 µM (not active)
IC50 [7]: 0.239 µM (active)
EC50 (Streptococcus): 9.43 µM (active)
IC50 [8]: 36.3 µM (not active)
EC50 [9]: 0.442 µM (active)
IC50 [10]: 8.91 µM (active)
IC50 [11]: 6.11 µM (not active)
EC50 [12]: > 120 µM (not active)
EC50 [13]: 2.54 µM (active)
IC50 [14]: 10.4 µM (active)
IC50 [15]: 13.2 µM (active)
EC50 (Streptokinase A): > 150 µM (not active)
EC50 [16]: 1.8 µM (inconclusive)

Clc1ccc(Nc2ccccc2/N=c2\ssnc2Cl)cc1
IC50 [17]: 9.77 µM (active)
IC50 (Phosphomannomutase 2): > 100 µM (inactive)

Fc1ccc(/N=c2\ssnc2Cl)cc1
IC50 [17]: 11.6 µM (active)
IC50 (Phosphomannomutase 2): > 100 µM (inactive)
